Assay [1] has as its target novel receptor obtainable from rat forebrain tissue. The experiment in a line: [3H]-Compound A radioligand binding assay. Particulars: competition with [3H]-Compound A (20 nM). The protocol:
WO 92/22293 (SmithKline Beecham) discloses compounds having anti-convulsant activity, including inter alia the compound trans-(+)-6-acetyl-4S-(4-fluorobenzoylamino)-3,4-dihydro-2,2-dimethyl-2H-1-benzopyran-3R-ol (hereinafter referred to as Compound A). […] The affinity of test compounds to the novel receptor site is assessed as follows.
Whole forebrain tissue is obtained from rats. The tissue is first homogenised in buffer (usually 50 mM Tris/HCl, pH 7.4). The homogenised tissue is washed by centrifugation and resuspension in the same buffer, then stored at −70° C. until used.
To carry out the radioligand binding assay, aliquots of tissue prepared as above (usually at a concentration of 1-2 mg protein/ml) are mixed with aliquots of [3H]-Compound A dissolved in buffer. The final concentration of [3H]-Compound A in the mixture is usually 20 nM. The mixture is incubated at room temperature for 1 hour. [3H]-Compound A bound to the tissue is then separated from unbound [3H]-Compound A by filtration through Whatman GF/B glass fibre filters. The filters are then washed rapidly with ice-cold buffer. The amount of radioactivity bound to the tissue trapped on the filters is measured by addition of liquid scintillation cocktail to the filters followed by counting in a liquid scintillation counter. […]

Assay [2] concerns electrically-induced seizures in mice. The experiment in a line: Maximal electroshock seizure threshold (MEST) test. It counts as in vivo. The settings on record: 10 mg/kg po, suspension in methyl cellulose, one hour post dosing. The protocol: The maximal electroshock seizure threshold (MEST) test in rodents is particularly sensitive for detecting potential anticonvulsant properties^1. In this model, anticonvulsant agents elevate the threshold to electrically-induced seizures whilst proconvulsants lower the seizure threshold.
Mice (naive, male, Charles River, U.K. CD-1 strain, 25-30 g) are randomly assigned to groups of 10-20 and dosed orally or intraperitoneally at a dose volume of 10 ml/kg with various doses of compound (0.3-300 mg/kg) or vehicle. Mice are then subjected at 30 or 60 min post dose to a single electroshock (0.1 sec, 50 Hz, sine wave form) administered via corneal electrodes. The mean current and standard error required to induce a tonic seizure in 50% (CC50) of the mice in a particular treatment group is determined by the ‘up and down’ method of Dixon and Mood (1948)^2. Statistical comparisons between vehicle- and drug-treated groups are made using the method of Litchfield and Wilcoxon (1949)^3.
In control animals the CC50 is usually 14-18 mA. […] If a tonic convulsion does occur, then the current is decreased, and so on until all the animals in the group have been tested.
The percentage increase or decrease in CC50 for each group compared to the control is calculated. […]
(In the maximal electroshock model the usual endpoint is tonic extension of the hind limbs.)

On to `COc1cc(C(C)(C)C)ccc1C(=O)Nc1cccc(C2CCCN2)c1` (racemic) [Example 1, (±)-4-tert-Butyl-2-methoxy-N-(3-pyrrolidin-2-yl-phenyl)-benzamide, monohydroclhloride], for which, in assay [1], the pKi value result was “greater than 7”. Further, the “increase in seizure threshold (CC50) compared to control” value in assay [2] came to 53%.
